Experimental data: US20050107386A1, “Methods of treating diseases and disorders by targeting multiple kinases” (priority 2003, published 2005)

Columns and labels:
Format in all cases: biochemical
Yes(h) = Yes(h) (Homo sapiens, UniProt P07947); experiment: Yes(h) kinase assay; conditions: for Inhibitory activity (% of control), Yes(h): 3 μM, percent of control kinase activity
Experimental: (§1) Six compounds (presumptive single agents) were tested against a panel of 50 kinases. The results are presented in Table 2; numbers for each kinase indicate the percent of control kinase activity in the presence of a 3μM concentration of the indicated agent.
(§2) Agents that target two or more different kinases are useful in the methods of the invention as described elsewhere herein. Such compounds may be identified, and their effect on certain kinases may be identified, using the assays briefly described below in Examples 4-83. Each of these assays was carried out as described in Davies et al., Biochem. J., 351:95-105 (2000). All assays were carried out at 10 μM ATP unless otherwise noted.
In a final reaction volume of 25 μl, Yes(h) (5-10 mU) is incubated with 8 mM MOPS pH 7.0, 0.2 mM EDTA, 0.1 mg/ml poly(Glu, Tyr) 4:1, 10 mM MgAcetate and [γ-^33P-ATP] (Specific activity approx. 500 cpm/pmol, concentration as required). The reaction is initiated by the addition of Mg^2+ [γ-^33P-ATP]. After incubation for 40 minutes at room temperature, the reaction is stopped by the addition of 5 μl of a 3% phosphoric acid solution. 10 μl of the reaction is then spotted onto a Filtermat A and washed three times for 5 minutes in 75 mM phosphoric acid and once in methanol prior to drying and scintillation counting.

Fyn(h) = Fyn(h) (Homo sapiens, UniProt P06241); experiment: Fyn(h) kinase assay; conditions: 3 μM; percent of control kinase activity
Experimental: as §1, §2
In a final reaction volume of 25 μl, Fyn (h) (5-10 mU) is incubated with 50 mM Tris pH 7.5, 0.1 mM EGTA, 0.1 mM NaVanadate, 250 μM […] (Cdc2 peptide; SEQ ID NO:7), 10 mM MgAcetate and [γ-^33P-ATP] (specific activity approx. 500 cpm/pmol, concentration as required). The reaction is initiated by the addition of Mg^2+ [γ-^33P-ATP]. After incubation for 40 minutes at room temperature, the reaction is stopped by the addition of 5 μl of a 3% phosphoric acid solution. 10 μl of the reaction is then spotted onto a P30 filtermat and washed three times for 5 minutes in 75 mM phosphoric acid and once in methanol prior to drying and scintillation counting.

PDGFRα(h) = PDGFRα(h) (Homo sapiens, UniProt P16234); experiment: PDGFRα(h) kinase assay; conditions: 3 μM; percent of control kinase activity
Experimental: as §1, §2
(§3) In a final reaction volume of 25 μl, PDGFRα (h) (5-10 mU) is incubated with 8 mM MOPS pH 7.0, 0.2 mM EDTA, 0.1 mg/ml poly(Glu, Tyr) 4:1, 10 mM MnCl2, 10 mM MgAcetate and [γ-^33P-ATP] (specific activity approx. 500 cpm/pmol, concentration as required). The reaction is initiated by the addition of Mg^2+ [γ-^33P-ATP]. After incubation for 40 minutes at room temperature, the reaction is stopped by the addition of 5 μl of a 3% phosphoric acid solution. 10 μl of the reaction is then spotted onto a Filtermat A and washed three times for 5 minutes in 75 mM phosphoric acid and once in methanol prior to drying and scintillation counting.

FGFR3(h) = FGFR3(h) (Homo sapiens, UniProt P22607); experiment: FGFR3(h) kinase assay; conditions: 3 μM; percent of control kinase activity
Experimental: as §1, §2
as §3, with “FGFR3” for “PDGFRα”, “50” for “8”, “Tris” for “MOPS”, “7.5, 0.1” for “7.0, 0.2”, “EGTA, 0.1 mM NaVanadate, 0.1% β-mercaptoethanol,” for “EDTA,”

Blk(m) = Blk(m) (Mus musculus, UniProt P16277); experiment: Blk(m) kinase assay; conditions: 3 μM; percent of control kinase activity
Experimental: as §1, §2
as §3, with “Blk (m)” for “PDGFRα (h)”, “50” for “8”, “Tris” for “MOPS”, “7.5, 0.1” for “7.0, 0.2”, “EGTA, 0.1 mM NaVanadate, 0.1% β-mercaptoethanol,” for “EDTA,”, “4:1,” for “4:1, 10 mM MnCl2,”

CK2(h) = CK2(h) (Homo sapiens, UniProt P68400); experiment: CK2(h) kinase assay; conditions: 3 μM; percent of control kinase activity
Experimental: as §1, §2
In a final reaction volume of 25 μl, CK2(h) (5-10 mU) is incubated with 20 mM Hepes pH 7.6, 0.15 M NaCl, 0.1 mM EDTA, 5 mM DTT, 0.1% Triton X-100, 165 μM […] (SEQ ID NO:6), 10 mM MgAcetate and [γ-^33P-ATP] (specific activity approx. 500 cpm/pmol, concentration as required). The reaction is initiated by the addition of Mg^2+ [γ-^33P-ATP]. After incubation for 40 minutes at room temperature, the reaction is stopped by the addition of 5 μl of a 3% phosphoric acid solution. 10 μl of the reaction is then spotted onto a P30 filtermat and washed three times for 5 minutes in 75 mM phosphoric acid and once in methanol prior to drying and scintillation counting.

Fes(h) = Fes(h) (Homo sapiens, UniProt P07332); experiment: Fes(h) kinase assay; conditions: 3 μM; percent of control kinase activity
Experimental: as §1, §2
as §3, with “Fes(h)” for “PDGFRα (h)”, “4:1,” for “4:1, 10 mM MnCl2,”

FGFR3(h), sequence (P22607 23-806): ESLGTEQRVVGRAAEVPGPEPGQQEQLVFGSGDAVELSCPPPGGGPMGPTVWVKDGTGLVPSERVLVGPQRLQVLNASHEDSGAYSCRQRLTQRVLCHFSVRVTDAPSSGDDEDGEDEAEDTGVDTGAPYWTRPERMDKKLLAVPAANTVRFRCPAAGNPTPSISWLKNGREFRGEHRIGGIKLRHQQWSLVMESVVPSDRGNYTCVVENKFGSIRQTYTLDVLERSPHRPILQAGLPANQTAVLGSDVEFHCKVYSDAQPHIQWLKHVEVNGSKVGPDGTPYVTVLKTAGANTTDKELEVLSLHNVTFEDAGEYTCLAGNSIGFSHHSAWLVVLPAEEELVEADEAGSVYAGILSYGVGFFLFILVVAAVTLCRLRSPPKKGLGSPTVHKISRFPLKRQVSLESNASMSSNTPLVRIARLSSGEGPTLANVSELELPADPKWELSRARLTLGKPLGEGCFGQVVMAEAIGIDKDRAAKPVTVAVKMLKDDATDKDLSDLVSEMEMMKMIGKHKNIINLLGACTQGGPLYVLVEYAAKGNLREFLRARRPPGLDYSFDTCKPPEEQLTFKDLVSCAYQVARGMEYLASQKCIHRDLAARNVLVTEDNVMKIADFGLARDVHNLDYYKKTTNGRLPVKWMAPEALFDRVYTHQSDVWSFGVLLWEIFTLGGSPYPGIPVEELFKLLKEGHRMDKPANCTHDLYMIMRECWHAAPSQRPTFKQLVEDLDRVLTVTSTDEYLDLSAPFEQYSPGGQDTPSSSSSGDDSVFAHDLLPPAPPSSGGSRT
PDGFRα(h), sequence (P16234 24-1089): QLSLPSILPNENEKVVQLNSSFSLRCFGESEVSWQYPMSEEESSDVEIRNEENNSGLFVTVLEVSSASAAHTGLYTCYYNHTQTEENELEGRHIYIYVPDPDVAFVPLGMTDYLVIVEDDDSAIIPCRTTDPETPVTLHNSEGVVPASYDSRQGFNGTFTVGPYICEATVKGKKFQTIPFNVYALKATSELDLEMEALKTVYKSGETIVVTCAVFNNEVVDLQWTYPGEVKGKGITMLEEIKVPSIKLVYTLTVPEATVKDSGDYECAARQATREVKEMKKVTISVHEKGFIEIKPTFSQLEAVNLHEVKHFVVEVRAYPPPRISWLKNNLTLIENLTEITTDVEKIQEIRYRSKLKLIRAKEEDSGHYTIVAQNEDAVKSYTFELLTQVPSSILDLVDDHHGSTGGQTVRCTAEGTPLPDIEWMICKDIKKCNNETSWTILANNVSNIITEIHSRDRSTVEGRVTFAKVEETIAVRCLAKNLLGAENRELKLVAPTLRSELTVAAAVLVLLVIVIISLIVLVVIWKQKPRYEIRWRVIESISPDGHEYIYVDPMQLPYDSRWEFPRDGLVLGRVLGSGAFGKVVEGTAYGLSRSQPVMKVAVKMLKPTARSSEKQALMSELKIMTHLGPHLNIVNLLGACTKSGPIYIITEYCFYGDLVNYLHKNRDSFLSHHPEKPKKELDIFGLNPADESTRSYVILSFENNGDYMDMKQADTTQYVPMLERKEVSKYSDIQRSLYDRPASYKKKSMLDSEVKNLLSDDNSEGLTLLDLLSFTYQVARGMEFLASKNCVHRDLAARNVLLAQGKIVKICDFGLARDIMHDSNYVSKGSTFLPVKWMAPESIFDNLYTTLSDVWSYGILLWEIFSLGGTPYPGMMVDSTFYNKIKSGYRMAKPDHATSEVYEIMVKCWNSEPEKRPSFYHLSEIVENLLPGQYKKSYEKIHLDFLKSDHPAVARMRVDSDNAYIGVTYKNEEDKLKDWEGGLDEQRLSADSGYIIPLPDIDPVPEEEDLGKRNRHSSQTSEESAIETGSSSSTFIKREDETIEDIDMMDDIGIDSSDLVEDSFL
CK2(h), sequence (P68400 whole entry): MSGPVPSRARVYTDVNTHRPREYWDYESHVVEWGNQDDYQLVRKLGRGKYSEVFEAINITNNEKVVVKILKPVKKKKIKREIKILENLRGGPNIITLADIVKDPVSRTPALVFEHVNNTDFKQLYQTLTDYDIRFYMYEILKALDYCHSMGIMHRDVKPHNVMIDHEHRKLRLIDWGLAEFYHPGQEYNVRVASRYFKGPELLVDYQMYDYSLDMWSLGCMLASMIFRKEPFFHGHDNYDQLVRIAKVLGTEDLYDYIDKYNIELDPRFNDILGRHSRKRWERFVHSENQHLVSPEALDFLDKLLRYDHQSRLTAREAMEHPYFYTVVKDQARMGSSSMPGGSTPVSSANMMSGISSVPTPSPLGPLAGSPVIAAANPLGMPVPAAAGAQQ
CK2(h), sequence (P67870 whole entry partner): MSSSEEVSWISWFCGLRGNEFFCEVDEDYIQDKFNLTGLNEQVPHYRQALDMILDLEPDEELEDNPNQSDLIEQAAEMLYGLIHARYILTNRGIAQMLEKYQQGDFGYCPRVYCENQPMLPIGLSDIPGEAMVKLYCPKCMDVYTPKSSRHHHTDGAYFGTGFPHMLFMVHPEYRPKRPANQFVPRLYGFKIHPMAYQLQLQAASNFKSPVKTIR
Yes(h), sequence (P07947 whole entry): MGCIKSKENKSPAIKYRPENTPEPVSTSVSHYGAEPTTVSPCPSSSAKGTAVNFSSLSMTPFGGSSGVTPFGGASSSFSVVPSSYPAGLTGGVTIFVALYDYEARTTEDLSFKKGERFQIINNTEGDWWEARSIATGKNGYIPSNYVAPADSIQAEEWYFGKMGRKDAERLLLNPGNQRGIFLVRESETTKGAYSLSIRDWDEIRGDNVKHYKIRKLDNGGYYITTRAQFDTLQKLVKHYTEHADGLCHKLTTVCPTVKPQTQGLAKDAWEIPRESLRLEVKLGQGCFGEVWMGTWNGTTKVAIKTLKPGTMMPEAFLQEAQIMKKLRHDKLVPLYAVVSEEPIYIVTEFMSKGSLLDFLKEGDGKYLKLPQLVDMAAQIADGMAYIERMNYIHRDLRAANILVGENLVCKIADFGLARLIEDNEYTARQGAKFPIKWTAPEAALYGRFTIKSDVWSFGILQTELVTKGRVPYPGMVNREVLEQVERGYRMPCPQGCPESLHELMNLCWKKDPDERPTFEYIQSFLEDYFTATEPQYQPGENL
Blk(m), sequence (P16277 whole entry): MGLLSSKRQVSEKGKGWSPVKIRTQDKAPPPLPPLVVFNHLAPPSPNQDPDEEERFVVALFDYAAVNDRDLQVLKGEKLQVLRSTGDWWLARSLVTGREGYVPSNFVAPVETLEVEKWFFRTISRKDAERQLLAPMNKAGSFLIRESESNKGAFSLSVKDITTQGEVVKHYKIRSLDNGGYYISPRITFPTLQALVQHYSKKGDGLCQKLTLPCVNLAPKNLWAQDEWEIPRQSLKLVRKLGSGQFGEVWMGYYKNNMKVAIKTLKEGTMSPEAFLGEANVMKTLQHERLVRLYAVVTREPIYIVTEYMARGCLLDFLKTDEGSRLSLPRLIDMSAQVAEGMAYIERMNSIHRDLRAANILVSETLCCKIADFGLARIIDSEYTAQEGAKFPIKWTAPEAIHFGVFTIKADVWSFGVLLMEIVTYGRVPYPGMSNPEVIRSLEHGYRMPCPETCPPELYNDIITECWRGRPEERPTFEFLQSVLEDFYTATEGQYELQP
Fyn(h), sequence (P06241 whole entry): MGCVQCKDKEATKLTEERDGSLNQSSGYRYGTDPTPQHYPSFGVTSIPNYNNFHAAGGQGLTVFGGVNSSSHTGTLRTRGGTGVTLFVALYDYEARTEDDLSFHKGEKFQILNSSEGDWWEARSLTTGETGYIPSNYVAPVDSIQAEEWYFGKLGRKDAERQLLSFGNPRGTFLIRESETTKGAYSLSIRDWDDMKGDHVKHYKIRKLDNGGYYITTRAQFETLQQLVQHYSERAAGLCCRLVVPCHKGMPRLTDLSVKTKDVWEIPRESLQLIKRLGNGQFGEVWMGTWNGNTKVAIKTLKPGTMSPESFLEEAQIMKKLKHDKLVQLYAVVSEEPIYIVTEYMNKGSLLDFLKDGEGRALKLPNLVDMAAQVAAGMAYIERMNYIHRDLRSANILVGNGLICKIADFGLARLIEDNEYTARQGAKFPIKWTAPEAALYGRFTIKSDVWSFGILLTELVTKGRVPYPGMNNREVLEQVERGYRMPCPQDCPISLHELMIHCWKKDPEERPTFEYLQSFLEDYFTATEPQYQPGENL
Fes(h), sequence (P07332 whole entry): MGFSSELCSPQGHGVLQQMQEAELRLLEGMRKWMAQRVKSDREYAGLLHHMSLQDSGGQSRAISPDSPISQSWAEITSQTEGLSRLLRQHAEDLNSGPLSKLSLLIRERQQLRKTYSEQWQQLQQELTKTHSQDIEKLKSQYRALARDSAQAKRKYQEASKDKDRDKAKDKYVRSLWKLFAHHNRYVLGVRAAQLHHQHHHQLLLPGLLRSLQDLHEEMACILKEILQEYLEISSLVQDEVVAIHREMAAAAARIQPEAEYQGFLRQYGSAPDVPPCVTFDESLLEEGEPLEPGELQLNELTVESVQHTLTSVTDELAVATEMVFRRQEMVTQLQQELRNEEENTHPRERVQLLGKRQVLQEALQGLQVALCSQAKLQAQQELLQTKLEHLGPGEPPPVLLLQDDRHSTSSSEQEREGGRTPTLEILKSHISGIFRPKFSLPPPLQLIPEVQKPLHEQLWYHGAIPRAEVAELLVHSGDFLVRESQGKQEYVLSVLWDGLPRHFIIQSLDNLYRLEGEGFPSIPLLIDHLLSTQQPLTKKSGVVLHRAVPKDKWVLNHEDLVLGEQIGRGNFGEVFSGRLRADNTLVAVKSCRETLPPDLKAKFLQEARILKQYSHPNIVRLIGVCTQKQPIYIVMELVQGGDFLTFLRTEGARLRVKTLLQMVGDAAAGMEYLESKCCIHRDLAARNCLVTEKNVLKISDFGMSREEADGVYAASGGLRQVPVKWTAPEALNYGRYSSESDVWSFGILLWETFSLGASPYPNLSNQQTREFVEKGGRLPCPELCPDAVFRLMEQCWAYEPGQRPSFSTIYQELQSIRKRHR

Row | Compound | Inhibitory activity (% of control), Yes(h) (Yes(h)) | Inhibitory activity (% of control), Fyn(h) (Fyn(h)) | Inhibitory activity (% of control), PDGFRα(h) (PDGFRα(h)) | Inhibitory activity (% of control), FGFR3(h) (FGFR3(h)) | Inhibitory activity (% of control), Blk(m) (Blk(m)) | Inhibitory activity (% of control), CK2(h) (CK2(h)) | Inhibitory activity (% of control), Fes(h) (Fes(h)) | inhibitory activity against Yes, in words (Yes(h); summary of Table 2)
1 | COc1ccc2cc(-c3n[nH]c4ccc(-c5n[nH]c(CN6CCOCC6)n5)cc34)ccc2c1 [CC001, 3-(6-Methoxynaphthalen-2-yl)-5-(5-Morpholin-4-Ylmethyl-1H-[1,2,4]Triazol-3-yl)-1H-Indazole] | 2 % of control | 14 % of control | 72 % of control | 33 % of control | 25 % of control | 45 % of control | 34 % of control | 
2 | CC(C)Cc1nc(-c2ccc3[nH]nc(-c4ccc5cc(OCCN6CCCC6)ccc5c4)c3c2)n[nH]1 [CC002, 5-(5-Isobutyl-1H-[1,2,4]Triazol-3-yl)-3-[6-(2-Pyrrolidin-1-yl-Ethoxy)-Naphthalen-2-yl]-1H-Indazole] | −3 % of control | 4 % of control | 71 % of control | 5 % of control | 11 % of control | 41 % of control | 10 % of control | 
3 | CC(C)(C)Cc1nc(-c2ccc3[nH]nc(-c4ccc5cc(OCc6ccccn6)ccc5c4)c3c2)n[nH]1 [CC004, 5-[5-(2,2-Dimethyl-propyl)-1H-[1,2,4]triazol-3-yl]-3-[6-(pyridine-2-ylmethoxy)-naphthalen-2-yl]-1H-indazole] | 24 % of control | 67 % of control | 77 % of control | 77 % of control | 43 % of control | 98 % of control | 70 % of control | somewhat less inhibitory activity

Now from value to compound:

Row | Inhibitory activity (% of control), Yes(h) (Yes(h)) | Inhibitory activity (% of control), Fyn(h) (Fyn(h)) | Inhibitory activity (% of control), PDGFRα(h) (PDGFRα(h)) | Inhibitory activity (% of control), FGFR3(h) (FGFR3(h)) | Inhibitory activity (% of control), Blk(m) (Blk(m)) | Inhibitory activity (% of control), CK2(h) (CK2(h)) | Inhibitory activity (% of control), Fes(h) (Fes(h)) | inhibitory activity against Yes, in words (Yes(h); summary of Table 2) | Compound
4 | 0 % of control | 4 % of control | 28 % of control | 5 % of control | 4 % of control | 74 % of control | 8 % of control |  | CCN1CCC[C@H]1COc1ccc2cc(-c3n[nH]c4ccc(-c5nc(CC(C)(C)C)n[nH]5)cc34)ccc2c1 [CC005, 2-[((2s)-1-ethylpyrrolidin-2-yl)methoxy]-6-{5-[3-(2,2-Dimethylpropyl)(1H-1,2,4,-triazol-5-yl)](1H-indazol-3-yl)}naphthalene]
5 | 57 % of control | 65 % of control | 86 % of control | 33 % of control | 60 % of control | 50 % of control | 70 % of control |  | Fc1ccc(-c2n[nH]c3ccc(-c4n[nH]c(C5CCCC5)n4)cc23)cc1 [CC006, 5-(5-Cyclopentyl-1H-[1,2,4]triazol-3-yl)-3-(4-fluoro-phenyl)-1H-indazole, reference compound]
6 | 50 % of control | 66 % of control | 108 % of control | 54 % of control | 76 % of control | 27 % of control | 41 % of control |  | O=C(NC1CCCC1)c1cccc(-c2n[nH]c3ccc(-c4nc[nH]n4)cc23)c1 [CC007, 3-(5-(1H-1,2,4-triazol-3-yl)(1H-indazol-3-yl))phenyl-N-cyclopentylcarboxamide, reference compound]
